Reference: the supplement of paper PMC10307832

Columns and labels:
Test in all cases: relative viability (nuclei count vs DMSO), 5 days (fraction); higher = more cells survive
[1] = compound: C[C@@H](C(=O)N[C@@H](C1CCCCC1)C(=O)N2CCC[C@H]2C(=O)N[C@@H]3[C@@H](CC4=CC=CC=C34)OCC#CC#CCO[C@@H]5CC6=CC=CC=C6[C@@H]5NC(=O)[C@@H]7CCCN7C(=O)[C@H](C8CCCCC8)NC(=O)[C@H](C)NC)NC [AZD5582] + NC(=O)Nc1cc(-c2cccc(F)c2)sc1C(=O)N[C@H]1CCCNC1 [AZD7762] (partner 0.2 µM)
In short: (§1)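 Dosing by pin tool came one day after lung cancer cell lines were seeded in 1536-well plates, using either one drug or a fixed anchor-drug dose plus five library-drug doses (not always all listed) in √10 steps. After 5 days, nuclei were counted on 4× images. Relative viability is treated-well nuclei count divided by vehicle-well nuclei count, and values are medians of duplicate plates.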

[2] = compound: C[C@@H](C(=O)N[C@@H](C1CCCCC1)C(=O)N2CCC[C@H]2C(=O)N[C@@H]3[C@@H](CC4=CC=CC=C34)OCC#CC#CCO[C@@H]5CC6=CC=CC=C6[C@@H]5NC(=O)[C@@H]7CCCN7C(=O)[C@H](C8CCCCC8)NC(=O)[C@H](C)NC)NC [AZD5582] + CS(=O)(=O)N1CCN(Cc2cc3nc(-c4cccc5[nH]ncc45)nc(N4CCOCC4)c3s2)CC1 [Pictilisib] (partner 1 µM)
In short: as §1

[3] = compound: Cn1nnc2c(C(N)=O)ncn2c1=O [Temozolomide] + N=C(N)NC(=N)NCCc1ccccc1 [Phenformin] (partner 250 µM)
In short: as §1

[4] = compound: C[C@@H](C(=O)N[C@@H](C1CCCCC1)C(=O)N2CCC[C@H]2C(=O)N[C@@H]3[C@@H](CC4=CC=CC=C34)OCC#CC#CCO[C@@H]5CC6=CC=CC=C6[C@@H]5NC(=O)[C@@H]7CCCN7C(=O)[C@H](C8CCCCC8)NC(=O)[C@H](C)NC)NC [AZD5582] + CC(=O)Nc1cccc(-n2c(=O)n(C3CC3)c(=O)c3c(Nc4ccc(I)cc4F)n(C)c(=O)c(C)c32)c1 [Trametinib] (partner 0.02 µM)
In short: as §1

| Cell Line | relative viability ([1]; first compound 0.001581 µM) | relative viability ([1]; first compound 0.005 µM) | relative viability ([1]; first compound 0.01581 µM) | relative viability ([1]; first compound 0.05 µM) | relative viability ([2]; first compound 0.001581 µM) | relative viability ([2]; first compound 0.005 µM) | relative viability ([2]; first compound 0.05 µM) | relative viability ([3]; first compound 0.2 µM) | relative viability ([3]; first compound 0.6325 µM) | relative viability ([3]; first compound 2 µM) | relative viability ([3]; first compound 6.325 µM) | relative viability ([3]; first compound 20 µM) | relative viability ([4]; first compound 0.001581 µM) | relative viability ([4]; first compound 0.005 µM) | relative viability ([4]; first compound 0.01581 µM) | relative viability ([4]; first compound 0.05 µM) | relative viability ([2]; first compound 0.01581 µM) |
| --- | --- | --- | --- | --- | --- | --- | --- | --- | --- | --- | --- | --- | --- | --- | --- | --- | --- |
| NCI-H2405 | 0.87 | 0.878 | 0.674 | 0.997 | 0.459 | 0.856 | 0.612 | 0.492 | 0.395 | 0.42 | 0.378 | 0.431 | 0.705 | 0.739 | 0.545 | 0.709 |  |
| NCI-H727 | 0.538 | 0.744 | 0.651 | 0.833 | 0.258 | 0.4 | 0.257 | 0.653 | 0.659 | 0.572 | 0.462 | 0.544 | 0.398 | 0.383 | 0.37 | 0.406 | 0.413 |
| EMC-BAC-2 | 1.07 | 1.06 | 0.996 | 1.04 | 0.469 | 0.523 | 0.328 | 0.604 | 0.479 | 0.586 | 0.458 | 0.564 | 0.757 | 0.841 | 0.737 | 0.797 | 0.414 |
| A-427 | 0.682 | 0.703 | 0.748 | 0.637 | 0.567 | 0.671 | 0.587 | 0.314 | 0.364 | 0.39 | 0.246 | 0.267 | 0.568 | 0.608 | 0.71 | 0.566 | 0.734 |
| NCI-H358 | 0.471 | 0.586 | 0.697 | 0.506 | 0.426 | 0.308 | 0.308 | 0.21 | 0.425 | 0.367 | 0.296 | 0.257 | 0.156 | 0.157 | 0.142 | 0.147 | 0.394 |
| NCI-H23 | 0.163 | 0.172 | 0.177 | 0.227 | 0.419 | 0.387 | 0.327 | 0.868 | 0.853 | 0.789 | 0.784 | 0.791 | 0.31 | 0.37 | 0.359 | 0.319 | 0.408 |
| NCI-H2085 | 0.987 | 1.02 | 0.855 | 0.948 | 0.572 | 0.44 | 0.584 | 0.594 | 0.707 | 0.809 | 0.689 | 0.649 | 0.433 | 0.643 | 0.394 | 0.61 | 0.488 |
| NCI-H1755 | 0.438 | 0.472 | 0.291 | 0.494 | 0.349 | 0.424 | 0.398 | 0.68 | 0.598 | 0.621 | 0.547 | 0.532 | 0.761 | 0.843 | 0.802 | 0.9 | 0.306 |
| NCI-H1666 | 0.774 | 0.85 | 0.737 | 0.746 | 0.481 | 0.48 | 0.407 | 0.575 | 0.584 | 0.585 | 0.526 | 0.594 | 0.959 | 0.864 | 0.846 | 0.852 | 0.413 |
| HCC-78 | 0.691 | 0.601 | 0.468 | 0.417 | 0.198 | 0.24 | 0.169 | 0.701 | 0.755 | 0.713 | 0.656 | 0.751 | 0.735 | 0.813 | 0.712 | 0.534 | 0.147 |
| NCI-H1944 | 0.316 | 0.523 | 0.475 | 0.581 | 0.344 | 0.389 | 0.389 | 0.219 | 0.183 | 0.233 | 0.19 | 0.2 | 0.36 | 0.487 | 0.406 | 0.485 | 0.297 |
| NCI-H1651 | 0.419 | 0.456 | 0.398 | 0.388 | 0.616 | 0.656 | 0.723 | 0.388 | 0.332 | 0.353 | 0.268 | 0.351 | 0.751 | 0.847 | 0.8 | 0.946 | 0.539 |
| NCI-H2347 | 0.724 | 0.558 | 0.666 | 0.713 | 0.712 | 0.446 | 0.894 | 0.34 | 0.376 | 0.378 | 0.387 | 0.607 | 0.327 | 0.266 | 0.264 | 0.311 | 0.637 |
| HOP-62 | 0.29 | 0.395 | 0.722 | 0.508 | 0.445 | 0.655 | 0.62 | 0.939 | 0.642 | 0.818 | 0.657 | 0.717 | 0.407 | 0.456 | 0.418 | 0.446 | 0.256 |
| NCI-H1993 | 0.694 | 0.867 | 0.7 | 1.03 | 0.916 | 0.807 | 0.859 | 0.563 | 0.493 | 0.469 | 0.464 | 0.613 | 0.455 | 0.505 | 0.493 | 0.526 | 0.796 |
| NCI-H1793 | 0.254 | 0.795 | 0.277 | 0.487 | 0.288 | 0.311 | 0.397 |  | 0.359 | 0.394 | 0.297 | 0.323 | 0.464 | 0.536 | 0.463 | 0.557 | 0.299 |
| HCC-15 | 1.06 | 1.05 | 1.2 | 0.615 | 0.566 | 0.596 | 0.509 | 0.502 | 0.531 | 0.519 | 0.418 | 0.513 | 0.328 | 0.39 | 0.332 | 0.365 | 0.621 |
| NCI-H1437 | 1.1 | 1.14 | 1.09 | 1.14 | 0.439 | 0.452 | 0.409 | 0.346 | 0.348 | 0.378 | 0.289 | 0.34 | 0.43 | 0.572 | 0.461 | 0.573 | 0.48 |
